Source: patent US9340577B2, “HLA binding motifs and peptides and their uses” (priority 1992, dated 2016)
No end group written: not given here.

Assays:
Assay in all cases: biochemical
Assay type in all cases: binding
A*0202 = A*0202 (Homo sapiens, UniProt P04439, D140Y/D185E/D98H/E176V/E277Q/G131W/G231S/I119L/I121R/I166T/I218V/L180W/L300P/L318F/N151K/N90K/P208A/P217A/Q67R/Q86G/Q94H/R138H/R169H/T345S)
A*0203 = A*0203 (Homo sapiens, UniProt P04439, A173T/D140Y/D185E/D98H/E277Q/G131W/G231S/I119V/I121R/I166T/I218V/L180W/L300P/L318F/N151K/N90K/P208A/P217A/Q86G/Q94H/R138H/R169H/T345S)
HLA-A*0201 (HLA-A2.1) = HLA-A*0201 (HLA-A2.1) (Homo sapiens, UniProt P04439, D140Y/D185E/D98H/E176V/E277Q/G131W/G231S/I119V/I121R/I166T/I218V/L300P/L318F/N151K/N90K/P208A/P217A/Q86G/Q94H/R138H/R169H/T345S)
A*0206 = A*0206 (Homo sapiens, UniProt P04439, D140Y/D185E/D98H/E176V/E277Q/F33Y/G131W/G231S/I119V/I121R/I166T/I218V/L300P/L318F/N151K/N90K/P208A/P217A/Q86G/Q94H/R138H/R169H/T345S)
A*6802 = A*6802 (Homo sapiens, UniProt P04439, A269V/D140Y/D185E/E176V/E277Q/E87N/F33Y/G231S/I121R/I166T/I218V/L180W/L300P/L318F/N151K/P208A/P217A/Q86R/R138H/R169H/S129P/T345S/V36M)

With VIKSDLVNEEV [Peptide 9013.0278] the IC50 (A*0202) was 57 nM, the IC50 (A*0203) was 1730 nM and the IC50 (HLA-A*0201 (HLA-A2.1)) was > 20000 nM. For the same sequence, the IC50 (A*0206) was > 20000 nM and the IC50 (A*6802) was > 20000 nM.
Work on QLHTQVLFIA [Peptide 9013.0242] yielded an IC50 (A*0202) of 322 nM, an IC50 (A*0203) of 163 nM and an IC50 (HLA-A*0201 (HLA-A2.1)) of 3940 nM. For the same sequence, the IC50 (A*0206) was > 20000 nM and the IC50 (A*6802) was > 20000 nM.
Work on RTLQQLLFV [Peptide 1525.15] yielded an IC50 (A*0202) of 1280 nM, an IC50 (A*0203) of 190 nM and an IC50 (HLA-A*0201 (HLA-A2.1)) of 120 nM. The IC50 (A*0206) was 30 nM and the IC50 (A*6802) was > 20000 nM.
For RTTVKTITVSV [Peptide 9013.0318], the IC50 (A*0202) was 866 nM, the IC50 (A*0203) was 457 nM and the IC50 (HLA-A*0201 (HLA-A2.1)) was 1590 nM. For the same sequence, the IC50 (A*0206) was 137 nM and the IC50 (A*6802) was 1.4 nM.
LLLTASLLV [Peptide 9013.0002] was tested, and the IC50 (A*0202) was 1330 nM, the IC50 (A*0203) was 293 nM and the IC50 (HLA-A*0201 (HLA-A2.1)) was 28 nM. For the same sequence, the IC50 (A*0206) was 79 nM and the IC50 (A*6802) was > 20000 nM.
With RTLQLLLFV [Peptide 1525.25] the IC50 (A*0202) was 371 nM, the IC50 (A*0203) was 468 nM and the IC50 (HLA-A*0201 (HLA-A2.1)) was 4.7 nM. It also gave an IC50 (A*0206) of 11 nM and an IC50 (A*6802) of 3210 nM.
Sequence FLQGAIISFV [Peptide 1578.27] has an IC50 (A*0202) of 0.65 nM, an IC50 (A*0203) of 6.6 nM and an IC50 (HLA-A*0201 (HLA-A2.1)) of 45 nM. It also gave an IC50 (A*0206) of 69 nM and an IC50 (A*6802) of 86 nM.
With QQIEFITFL [Peptide 1578.10] the IC50 (A*0202) was 5.9 nM, the IC50 (A*0203) was 20 nM and the IC50 (HLA-A*0201 (HLA-A2.1)) was 42 nM. For the same sequence, the IC50 (A*0206) was 45 nM and the IC50 (A*6802) was 93 nM.
With LQLSNDNRTLV [Peptide 9013.0307] the IC50 (A*0202) was 1390 nM, the IC50 (A*0203) was 5200 nM and the IC50 (HLA-A*0201 (HLA-A2.1)) was 12800 nM. For the same sequence, the IC50 (A*0206) was 99 nM and the IC50 (A*6802) was > 20000 nM.
Sequence TLQATPGPA [Peptide 9013.0028] has an IC50 (A*0202) of 1980 nM, an IC50 (A*0203) of 29 nM and an IC50 (HLA-A*0201 (HLA-A2.1)) of 19400 nM. The IC50 (A*0206) was > 20000 nM and the IC50 (A*6802) was > 20000 nM.
FLSYFKLFL [Peptide 1578.37] was tested, and the IC50 (A*0202) was 2.1 nM, the IC50 (A*0203) was 8.6 nM and the IC50 (HLA-A*0201 (HLA-A2.1)) was 30 nM. For the same sequence, the IC50 (A*0206) was 45 nM and the IC50 (A*6802) was 4750 nM.
With RLQLSNGNRTL [Peptide 9013.0286] the IC50 (A*0202) was 443 nM, the IC50 (A*0203) was 2840 nM and the IC50 (HLA-A*0201 (HLA-A2.1)) was > 20000 nM. For the same sequence, the IC50 (A*0206) was > 20000 nM and the IC50 (A*6802) was > 20000 nM.
For TAKLTIESV [Peptide 9013.0009], the IC50 (A*0202) was 480 nM, the IC50 (A*0203) was 216 nM and the IC50 (HLA-A*0201 (HLA-A2.1)) was > 20000 nM. It also gave an IC50 (A*0206) of 10700 nM and an IC50 (A*6802) of 243 nM.
GLNRTTVTV [Peptide 9013.0066] showed an IC50 (A*0202) of 10 nM, an IC50 (A*0203) of 3.8 nM and an IC50 (HLA-A*0201 (HLA-A2.1)) of 109 nM. The IC50 (A*0206) was 4730 nM and the IC50 (A*6802) was > 20000 nM.
With RLLTLLSVT [Peptide 9013.0076] the IC50 (A*0202) was 4610 nM, the IC50 (A*0203) was 1600 nM and the IC50 (HLA-A*0201 (HLA-A2.1)) was 1830 nM. For the same sequence, the IC50 (A*0206) was 482 nM and the IC50 (A*6802) was > 20000 nM.
With LLLSNGNRTL [Peptide 9013.0227] the IC50 (A*0202) was 158 nM, the IC50 (A*0203) was 412 nM and the IC50 (HLA-A*0201 (HLA-A2.1)) was 1550 nM. The IC50 (A*0206) was 3990 nM and the IC50 (A*6802) was > 20000 nM.
VLAEAMGQV [Peptide 1539.05] gave an IC50 (A*0202) of 1.7 nM, an IC50 (A*0203) of 3.2 nM and an IC50 (HLA-A*0201 (HLA-A2.1)) of 55 nM. The IC50 (A*0206) was 75 nM and the IC50 (A*6802) was 168 nM.
Work on RILQQLLFA [Peptide 1525.14] yielded an IC50 (A*0202) of 68 nM, an IC50 (A*0203) of 68 nM and an IC50 (HLA-A*0201 (HLA-A2.1)) of 123 nM. The IC50 (A*0206) was 20 nM and the IC50 (A*6802) was > 20000 nM.
Work on RLENAILFTA [Peptide 1578.51] yielded an IC50 (A*0202) of 43 nM, an IC50 (A*0203) of 1770 nM and an IC50 (HLA-A*0201 (HLA-A2.1)) of 2150 nM. For the same sequence, the IC50 (A*0206) was 4560 nM and the IC50 (A*6802) was > 20000 nM.
Work on SLYTHLQCL [Peptide 1578.20] yielded an IC50 (A*0202) of 2.6 nM, an IC50 (A*0203) of 11 nM and an IC50 (HLA-A*0201 (HLA-A2.1)) of 224 nM. It also gave an IC50 (A*0206) of 540 nM and an IC50 (A*6802) of 8470 nM.
Sequence QLSNGNRTL [Peptide 9013.0050] has an IC50 (A*0202) of 39 nM, an IC50 (A*0203) of 43 nM and an IC50 (HLA-A*0201 (HLA-A2.1)) of 16100 nM. For the same sequence, the IC50 (A*0206) was > 20000 nM and the IC50 (A*6802) was 8650 nM.
KLMSQLLNI [Peptide 1578.29] showed an IC50 (A*0202) of 1.6 nM, an IC50 (A*0203) of 12 nM and an IC50 (HLA-A*0201 (HLA-A2.1)) of 35 nM. For the same sequence, the IC50 (A*0206) was 56 nM and the IC50 (A*6802) was > 20000 nM.
ILNTTYLWWV [Peptide 9013.0195] was tested, and the IC50 (A*0202) was 121 nM, the IC50 (A*0203) was 22 nM and the IC50 (A*0206) was 775 nM. The IC50 (A*6802) was 15900 nM.
With ILYAHIQCL [Peptide 1578.08] the IC50 (A*0202) was 9.4 nM, the IC50 (A*0203) was 10 nM and the IC50 (A*0206) was 420 nM. For the same sequence, the IC50 (A*6802) was 16400 nM.
RVYVCGIQNSV [Peptide 9013.0336] showed an IC50 (A*0202) of 0.22 nM, an IC50 (A*0203) of 3.6 nM and an IC50 (A*0206) of 305 nM. It also gave an IC50 (A*6802) of 6320 nM.
